Reference: PMC6917776, “Discovery of a chemical probe for PRDM9” (Nature Communications, 2019)
Values joined by “and” are separate entries in the source; they are usually repeats but may differ in a detail not shown here. Identical values can stand only once. Like-named read-outs stand apart in the source and are kept apart here.

What was measured:
Experiment in all cases: Methyltransferase selectivity assay (SPA)
Format in all cases: biochemical
PRMT3 = target: T1, PRMT3 (Homo sapiens, UniProt O60678)
T1 construct: purchased Structural Genomics Consortium (SGC Toronto) in-house methyltransferase panel
T1 sequence (O60678 whole entry): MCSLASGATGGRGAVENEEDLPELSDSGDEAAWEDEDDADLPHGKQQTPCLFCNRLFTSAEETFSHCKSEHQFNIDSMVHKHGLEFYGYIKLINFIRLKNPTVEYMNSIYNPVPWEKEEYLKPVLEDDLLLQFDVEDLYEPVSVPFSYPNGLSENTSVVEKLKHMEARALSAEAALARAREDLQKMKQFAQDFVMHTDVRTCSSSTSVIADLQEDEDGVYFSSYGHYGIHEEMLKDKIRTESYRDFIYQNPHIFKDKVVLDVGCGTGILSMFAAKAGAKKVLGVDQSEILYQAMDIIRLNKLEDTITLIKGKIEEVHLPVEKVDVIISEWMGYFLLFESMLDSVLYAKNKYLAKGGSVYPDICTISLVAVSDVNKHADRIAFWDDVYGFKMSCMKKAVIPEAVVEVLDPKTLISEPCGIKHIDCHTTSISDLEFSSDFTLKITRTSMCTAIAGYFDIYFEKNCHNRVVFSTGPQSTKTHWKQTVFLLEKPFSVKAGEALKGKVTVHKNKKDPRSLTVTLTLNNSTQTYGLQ

PRMT5/ MEP50 complex = target: T2, PRMT5/ MEP50 complex (Homo sapiens, UniProt O14744)
T2 construct: purchased Structural Genomics Consortium (SGC Toronto) in-house methyltransferase panel
T2 sequence (O14744 whole entry): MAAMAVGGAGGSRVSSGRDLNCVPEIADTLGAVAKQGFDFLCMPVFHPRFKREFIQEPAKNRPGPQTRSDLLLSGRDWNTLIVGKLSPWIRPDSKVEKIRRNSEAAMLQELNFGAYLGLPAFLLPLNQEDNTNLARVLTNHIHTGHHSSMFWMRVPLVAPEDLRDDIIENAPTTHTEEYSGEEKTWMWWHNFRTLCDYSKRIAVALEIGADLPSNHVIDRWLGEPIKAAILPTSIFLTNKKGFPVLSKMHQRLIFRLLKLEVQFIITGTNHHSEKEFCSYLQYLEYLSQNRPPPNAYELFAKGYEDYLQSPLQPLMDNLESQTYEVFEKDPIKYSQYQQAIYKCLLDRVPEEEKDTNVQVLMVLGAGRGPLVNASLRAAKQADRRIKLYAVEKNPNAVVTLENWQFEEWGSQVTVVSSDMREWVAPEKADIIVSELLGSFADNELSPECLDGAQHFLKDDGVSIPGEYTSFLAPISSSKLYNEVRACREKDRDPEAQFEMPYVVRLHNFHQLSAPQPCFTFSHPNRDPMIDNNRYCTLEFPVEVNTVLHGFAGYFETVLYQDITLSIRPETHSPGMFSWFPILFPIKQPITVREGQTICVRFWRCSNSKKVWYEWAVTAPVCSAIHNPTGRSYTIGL
T2 sequence (Q9BQA1 whole entry partner): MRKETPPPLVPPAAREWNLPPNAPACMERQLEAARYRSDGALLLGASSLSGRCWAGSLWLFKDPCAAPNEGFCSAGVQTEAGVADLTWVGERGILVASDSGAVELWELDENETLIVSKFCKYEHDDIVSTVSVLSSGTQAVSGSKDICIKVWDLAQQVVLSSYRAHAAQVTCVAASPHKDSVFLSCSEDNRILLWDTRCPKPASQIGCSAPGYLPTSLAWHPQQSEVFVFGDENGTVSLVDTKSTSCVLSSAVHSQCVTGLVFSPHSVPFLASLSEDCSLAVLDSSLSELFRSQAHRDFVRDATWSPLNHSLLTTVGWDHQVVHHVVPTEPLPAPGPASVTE

MLL1 trimeric complex = target: T3, MLL1 trimeric complex (Homo sapiens, UniProt Q03164)
T3 construct: purchased Structural Genomics Consortium (SGC Toronto) in-house methyltransferase panel

SETD7 = target: T4, SETD7 (Homo sapiens, UniProt Q8WTS6)
T4 construct: purchased Structural Genomics Consortium (SGC Toronto) in-house methyltransferase panel
T4 sequence (Q8WTS6 1-366): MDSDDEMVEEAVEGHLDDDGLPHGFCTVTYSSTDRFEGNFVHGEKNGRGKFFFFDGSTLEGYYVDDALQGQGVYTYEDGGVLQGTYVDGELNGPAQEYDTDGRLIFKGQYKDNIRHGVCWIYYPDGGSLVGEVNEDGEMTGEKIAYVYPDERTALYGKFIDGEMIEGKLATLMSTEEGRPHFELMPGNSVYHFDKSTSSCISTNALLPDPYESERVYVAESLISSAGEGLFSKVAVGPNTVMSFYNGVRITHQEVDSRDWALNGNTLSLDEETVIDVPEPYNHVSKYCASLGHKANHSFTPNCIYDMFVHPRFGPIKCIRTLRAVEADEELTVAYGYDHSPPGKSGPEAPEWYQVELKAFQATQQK

SETDB1 = target: T5, SETDB1 (Homo sapiens, UniProt Q15047)
T5 construct: purchased Structural Genomics Consortium (SGC Toronto) in-house methyltransferase panel

PRMT9 = target: T6, PRMT9 (Homo sapiens, UniProt Q6P2P2)
T6 construct: purchased Structural Genomics Consortium (SGC Toronto) in-house methyltransferase panel
T6 sequence (Q6P2P2 1-845): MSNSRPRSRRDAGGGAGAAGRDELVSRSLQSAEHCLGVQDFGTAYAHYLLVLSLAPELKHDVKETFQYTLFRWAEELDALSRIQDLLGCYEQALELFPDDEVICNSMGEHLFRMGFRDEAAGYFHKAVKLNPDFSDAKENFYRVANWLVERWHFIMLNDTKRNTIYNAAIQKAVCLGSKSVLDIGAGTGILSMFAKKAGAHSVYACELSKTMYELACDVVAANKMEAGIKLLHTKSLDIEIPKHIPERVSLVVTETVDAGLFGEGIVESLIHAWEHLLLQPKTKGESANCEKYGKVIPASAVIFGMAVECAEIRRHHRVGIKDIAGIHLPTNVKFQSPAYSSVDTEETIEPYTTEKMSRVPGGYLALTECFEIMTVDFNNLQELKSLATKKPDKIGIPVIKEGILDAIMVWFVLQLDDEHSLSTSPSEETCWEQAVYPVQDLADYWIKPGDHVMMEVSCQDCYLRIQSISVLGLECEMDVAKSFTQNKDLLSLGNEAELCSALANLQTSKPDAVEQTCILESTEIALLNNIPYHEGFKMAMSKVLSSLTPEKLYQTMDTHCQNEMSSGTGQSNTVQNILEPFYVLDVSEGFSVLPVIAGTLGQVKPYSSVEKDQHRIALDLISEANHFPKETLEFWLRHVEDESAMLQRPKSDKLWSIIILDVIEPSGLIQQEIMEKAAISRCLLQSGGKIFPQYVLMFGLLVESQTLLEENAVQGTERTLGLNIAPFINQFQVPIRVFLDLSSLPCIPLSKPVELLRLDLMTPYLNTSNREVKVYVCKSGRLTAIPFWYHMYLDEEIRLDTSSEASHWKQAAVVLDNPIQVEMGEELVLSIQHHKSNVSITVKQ

PRMT1 = target: T7, PRMT1 (Homo sapiens, UniProt Q99873)
T7 construct: purchased Structural Genomics Consortium (SGC Toronto) in-house methyltransferase panel
T7 sequence (Q99873 whole entry): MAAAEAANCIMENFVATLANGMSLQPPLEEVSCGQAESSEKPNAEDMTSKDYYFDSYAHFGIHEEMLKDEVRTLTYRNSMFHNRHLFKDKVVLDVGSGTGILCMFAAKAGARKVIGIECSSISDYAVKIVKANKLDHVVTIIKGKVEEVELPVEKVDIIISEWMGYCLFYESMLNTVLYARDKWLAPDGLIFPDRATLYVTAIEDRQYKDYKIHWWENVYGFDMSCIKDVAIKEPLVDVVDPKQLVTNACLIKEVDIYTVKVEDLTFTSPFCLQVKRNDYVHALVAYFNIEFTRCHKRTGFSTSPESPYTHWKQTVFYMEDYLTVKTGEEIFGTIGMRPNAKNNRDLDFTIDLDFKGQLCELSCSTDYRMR

SUV420H1 = target: T8, SUV420H1 (Homo sapiens, UniProt Q4FZB7)
T8 construct: purchased Structural Genomics Consortium (SGC Toronto) in-house methyltransferase panel
T8 sequence (Q4FZB7 whole entry): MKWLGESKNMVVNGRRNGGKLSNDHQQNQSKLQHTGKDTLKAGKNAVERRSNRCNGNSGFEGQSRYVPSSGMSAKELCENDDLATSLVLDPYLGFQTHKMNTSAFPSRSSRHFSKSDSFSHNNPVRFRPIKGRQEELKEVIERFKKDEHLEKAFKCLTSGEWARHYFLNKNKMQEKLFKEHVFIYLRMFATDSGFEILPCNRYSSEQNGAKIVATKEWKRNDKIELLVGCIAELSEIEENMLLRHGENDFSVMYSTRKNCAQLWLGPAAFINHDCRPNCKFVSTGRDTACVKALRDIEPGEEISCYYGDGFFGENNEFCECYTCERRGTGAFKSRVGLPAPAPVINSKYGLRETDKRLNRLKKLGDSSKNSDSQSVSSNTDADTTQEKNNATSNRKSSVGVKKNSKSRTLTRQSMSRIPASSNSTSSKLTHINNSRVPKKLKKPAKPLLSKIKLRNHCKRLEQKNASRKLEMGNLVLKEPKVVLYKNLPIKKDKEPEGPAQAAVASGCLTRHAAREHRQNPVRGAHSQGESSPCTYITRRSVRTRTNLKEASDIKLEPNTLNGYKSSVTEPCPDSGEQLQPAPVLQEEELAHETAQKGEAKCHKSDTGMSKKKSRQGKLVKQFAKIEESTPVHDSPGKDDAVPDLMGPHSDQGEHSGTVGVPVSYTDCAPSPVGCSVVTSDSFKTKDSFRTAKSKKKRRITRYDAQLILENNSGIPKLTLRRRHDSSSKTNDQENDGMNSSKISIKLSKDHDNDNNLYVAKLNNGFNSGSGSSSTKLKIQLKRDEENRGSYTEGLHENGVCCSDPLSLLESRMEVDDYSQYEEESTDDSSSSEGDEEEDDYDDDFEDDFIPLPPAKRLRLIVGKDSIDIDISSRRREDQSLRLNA

[1] = 10µM compound, Exp1, Exp2, 10 µM
[2] = 1µM compound, Exp1, Exp2, read-out: Activity %
[3] = 10µM compound, Exp1, Exp2, read-out: Activity %

`COc1cc(OC)cc(-c2noc(N3CCN(C)C4(CCN(c5ccccc5)CC4)C3)n2)c1` [MRK-740 -NC] gave an activity at 1 µM (PRMT3; 1µM compound, Exp1, Exp2) of 105%, an Activity % (PRMT3; 1µM compound, Exp1, Exp2, 1 µM) of 106% and an activity at 10 µM (PRMT3; 10µM compound, Exp1, Exp2) of 104%. For the same molecule, the Activity % (PRMT3; [1]) was 97%, the activity at 1 µM (PRMT5/ MEP50 complex; 1µM compound, Exp1, Exp2) was 108% and the Activity % (PRMT5/ MEP50 complex; 1µM compound, Exp1, Exp2, 1 µM) was 99%. It also gave an activity at 10 µM (PRMT5/ MEP50 complex; 10µM compound, Exp1, Exp2) of 95%, an Activity % (PRMT5/ MEP50 complex; [1]) of 102% and an activity at 1 µM (MLL1 trimeric complex; 1µM compound, Exp1, Exp2) of 95%. It also gave an activity at 10 µM (MLL1 trimeric complex; 10µM compound, Exp1, Exp2) of 98%, an Activity % (MLL1 trimeric complex; [1]) of 97% and an activity at 1 µM (SETD7; 1µM compound, Exp1, Exp2) of 96%. For the same molecule, the Activity % (SETD7; 1µM compound, Exp1, Exp2, 1 µM) was 95%, the activity at 10 µM (SETD7; 10µM compound, Exp1, Exp2) was 94% and the Activity % (SETD7; [1]) was 88%. It also gave an activity at 1 µM (SETDB1; 1µM compound, Exp1, Exp2) of 104%, an activity at 10 µM (SETDB1; 10µM compound, Exp1, Exp2) of 101% and an Activity % (SETDB1; [1]) of 86%. For the same molecule, the activity at 1 µM (PRMT9; 1µM compound, Exp1, Exp2) was 102%, the Activity % (PRMT9; 1µM compound, Exp1, Exp2, 1 µM) was 106% and the activity at 10 µM (PRMT9; 10µM compound, Exp1, Exp2) was 98%. For the same molecule, the activity at 1 µM (PRMT1; 1µM compound, Exp1, Exp2) was 108%, the Activity % (PRMT1; 1µM compound, Exp1, Exp2, 1 µM) was 109% and the activity at 10 µM (PRMT1; 10µM compound, Exp1, Exp2) was 105%. It also gave an Activity % (PRMT1; [1]) of 98%, an activity at 1 µM (SUV420H1; 1µM compound, Exp1, Exp2) of 103% and an Activity % (SUV420H1; 1µM compound, Exp1, Exp2, 1 µM) of 105%. The activity at 10 µM (SUV420H1; 10µM compound, Exp1, Exp2) was 99% and the Activity % (SUV420H1; [1]) was 95%.
For `COc1cc(OC)cc(-c2noc(N3CCN(C)C4(CCN(c5ccnc(C)c5)CC4)C3)n2)c1` [MRK-740], the Activity % (PRMT3; 1µM compound, Exp1, Exp2, 1 µM) was 88%, the activity at 1 µM (PRMT3; [2]) was 90% and the Activity % (PRMT3; [1]) was 87%. The activity at 10 µM (PRMT3; [3]) was 92%, the activity at 1 µM (PRMT5/ MEP50 complex; [2]) was 90% and the activity at 10 µM (PRMT5/ MEP50 complex; [3]) was 94%. It also gave an Activity % (MLL1 trimeric complex; 1µM compound, Exp1, Exp2, 1 µM) of 90%, an activity at 1 µM (MLL1 trimeric complex; [2]) of 96% and an Activity % (MLL1 trimeric complex; [1]) of 90%. It also gave an activity at 10 µM (MLL1 trimeric complex; [3]) of 94%, an Activity % (SETD7; 1µM compound, Exp1, Exp2, 1 µM) of 92% and an activity at 1 µM (SETD7; [2]) of 93%. For the same molecule, the Activity % (SETD7; [1]) was 87%, the activity at 10 µM (SETD7; [3]) was 90% and the Activity % (SETDB1; 1µM compound, Exp1, Exp2, 1 µM) was 84%. It also gave an activity at 1 µM (SETDB1; [2]) of 81%, an Activity % (SETDB1; [1]) of 96% and an activity at 10 µM (SETDB1; [3]) of 86%. For the same molecule, the activity at 1 µM (PRMT9; [2]) was 100%, the Activity % (PRMT9; [1]) was 89% and 114% and the Activity % (PRMT1; 1µM compound, Exp1, Exp2, 1 µM) was 96%. For the same molecule, the activity at 1 µM (PRMT1; [2]) was 94%, the Activity % (PRMT1; [1]) was 89% and the activity at 10 µM (PRMT1; [3]) was 91%. The Activity % (SUV420H1; 1µM compound, Exp1, Exp2, 1 µM) was 102%, the activity at 1 µM (SUV420H1; [2]) was 101% and the Activity % (SUV420H1; [1]) was 103%. For the same molecule, the activity at 10 µM (SUV420H1; [3]) was 86%.
